2 molecules from patent US9827189B2, “Stable parenteral DNJ compositions” (AMICUS THERAPEUTICS, INC., priority 2013, dated 2017) can be followed below.

A short description of data set [1]: Stability and integrity of 1-DNJ-HCl in buffer solutions at 60° C. by NP-HPLC (UV and CAD) and discoloration. It counts as physicochemical. The note with it: 1-DNJ/buffer formulations with a pH in the range of about 6.0-7.5. The method, then:
1-DNJ-HCl was dissolved in sodium phosphate buffer. 1-DNJ-HCl concentration was 60 mg/mL; sodium phosphate buffer concentration was 100 mM at pH 4.89. The formulation was stored at 60° C. for 4 days. 1-DNJ-HCl solution in water was used as a control. Reaction rate for small molecules such as 1-DNJ-HCl generally follows Arrhenius equation where reaction rate nearly doubles for every 10° C. increase in the temperature. Thus, under this model, the reaction rate at 60° C. would be 2^5 or 32 times the reaction rate at 10° C. Therefore during 4 days at 60° C. 1-DNJ-HCl would degrade by approximately the same percentage as during 128 days (4*32) at 10° C. The stability of 1-DNJ-HCl was measured by normal phase high performance liquid chromatography (NP-HPLC). 1-DNJ-HCl was recorded by UV chromatograms and by Charged Aerosol Detector (CAD) chromatograms. Mobile phase consisted of ACN/30 mM Ammonium Acetate (90/10, v/v). The flow rate was 1.0 ml/min with 5 μl injection at 400° C. UV absorbance was measured at 220 nm CAD detector settings were 35.0 psi, Gain: 100 pA. 1-DNJ-HCl was dissolved in sodium acetate buffer. The 1-DNJ-HCl concentration was 60 mg/mL; sodium acetate buffer concentration was 50 mM at pH 5.5. The formulation was stored at 60° C. for 4 days. 1-DNJ-HCl solution in water was used as control. Reaction rate for small molecules such as 1-DNJ-HCl generally follows the Arrhenius equation, in which the reaction rate nearly doubles for every 10°K increase in the temperature. Thus the reaction rate, under this model, at 60° C. would be 2^5 or 32 times the reaction rate at 10° C. Therefore during 4 days at 60° C. 1-DNJ-HCl would degrade by approximately same percentage as during 128 days at 10° C. The stability of 1-DNJ-HCl was measured by NP-HPLC. Presence of 1-DNJ-HCl was recorded by UV absorbance detector and by Charged Aerosol Detector. Mobile phase consisted of ACN/30 mM Ammonium Acetate (90/10, v/v). The flow rate was 1.0 ml/min with 5 μl injection at 400 C. UV absorbance was measured at 220 nm. CAD detector settings were 35.0 psi, Gain: 100 pA. 1-DNJ-HCl was dissolved in sodium citrate buffer that further includes EDTA. 1-DNJ-HCl concentration was 60 mg/mL; sodium citrate buffer concentration was 50 mM at pH 4.6. The EDTA concentration was 0.05% w/v. Some samples were stored under the nitrogen atmosphere (essentially 100% nitrogen) while others were stored under air. The formulation was stored at 60° C. for 8 days. Stability of 1-DNJ-HCl was measured by NP-HPLC. Presence of 1-DNJ-HCl was recorded by UV absorbance detector and by Charged Aerosol Detector. Mobile phase consisted of ACN/30 mM Ammonium Acetate (90/10, v/v). The flow rate was 1.0 ml/min with 5 μl injection at 400 C. UV absorbance was measured at 220 nm. CAD detector settings were 35.0 psi, Gain: 100 pA. 1-DNJ-HCl was dissolved in sodium citrate buffer. 1-DNJ-HCl concentration was 60 mg/mL; sodium citrate buffer concentration was 50 mM at pH 4.7. The formulation was stored at 60° C. for 8 days. 1-DNJ-HCl solution in water was used as control. Stability of 1-DNJ-HCl was measured by NP-HPLC. Presence of 1-DNJ-HCl was recorded by UV absorbance detector and by Charged Aerosol Detector. Mobile phase consisted of ACN/30 mM Ammonium Acetate (90/10, v/v). The flow rate was 1.0 ml/min with 5 μl injection at 400 C. UV absorbance was measured at 220 nm. CAD detector settings were 35.0 psi, Gain: 100 pA. 1-DNJ-HCl was dissolved in sodium citrate buffer. 1-DNJ-HCl concentration was 60 mg/mL; sodium citrate buffer concentration was 50 mM at pH 5.0. The formulation was stored at 60° C. for 17 days. The samples were stored under the nitrogen atmosphere (essentially 100% nitrogen). 1-DNJ-HCl solution in water was used as control. Reaction rate for small molecules such as 1-DNJ-HCl generally follows Arrhenius equation where reaction rate nearly doubles for every 10°K increase in the temperature. Thus reaction rate at 60° C. would be 2^5 or 32 times the reaction rate at 10° C. Therefore during 17 days at 60° C. […]

The subject of a further data set is human whole blood. The data set is described as follows: Hemolytic potential in human whole blood. The note with it: 37 ° C. 30 minutes. The format is cell-based. The method, then: (§1) 1-DNJ-HCl was dissolved in sodium citrate buffer. 1-DNJ-HCl concentration was 30 mg/mL (resulting free 1-DNJ concentration was 25 mg/mL); sodium citrate buffer concentration was 50 mM at pH 5.0. 1-DNJ-HCl formulation was added to whole blood samples of male human, rat, and cynomolgus monkey. […]. Buffer served as a negative control, while Triton-X 100 (Lysing agent) served as a positive control. Additionally blood sample without any additions was used as a negative control. The samples were stored at 4° C. Blood samples were incubated at 37 ° C. for 30 minutes with the 1-DNJ-HCl formulation, after which the samples were centrifuged. The amount of hemoglobin in the supernatant from each centrifuged sample was measured using a commercially available hemoglobin assay kit (BioAssay Systems, QuantiChrom™ Hemoglobin Assay Kit) and the Tecan microplate reader.

The test system of data set [2] is cynomolgus monkey whole blood. The data set is described as follows: Hemolytic potential in cynomolgus monkey whole blood. It counts as cell-based. The note with it: 37 ° C. 30 minutes. The protocol:
as §1

In another data set the test system is rat whole blood. The data set is described as follows: Hemolytic potential in rat whole blood. It counts as cell-based, Sprague Dawley rat. The note with it: 37 ° C. 30 minutes. The method, then: as §1
[3] abbreviates: 500 μL blood mixed with 500 μL sample (30 mg/mL AT2220 or 0.1% Triton X-100).
Setting [4] is: 500 μL blood mixed with 500 μL sample, 30 mg/mL AT2220 dilution 1, 0.1% Triton X-100 dilution 100.
The mark [5] stands for this setting: supernatant, 500 μL blood mixed with 500 μL sample (30 mg/mL AT2220 or 0.1% Triton X-100).

For `OC[C@H]1NC[C@H](O)[C@@H](O)[C@@H]1O` [1-DNJ, 1-deoxynojirimycin], the Discoloration entry in data set [1] is given as “discoloration may occur”.
Triton X-100: the “% RBC lysis” value (in the data set with human whole blood (setting [3]); in data set [2] (setting [3]); with rat whole blood (setting [3])) was 100.0% throughout. The entries for the “Avg OD (n = 4)” value (with human whole blood (setting [4]); in data set [2] (setting [4]); in the data set with rat whole blood (setting [4])) were 0.2768, 0.2000 and 0.2567, respectively. The values for the Hemoglobin (in the data set with human whole blood (setting [5]); in data set [2] (setting [5]); in the data set with rat whole blood (setting [5])) were 6899 mg/dL, 4984 mg/dL and 6398 mg/dL, respectively.
